Patent US12583851B2, “Heteroaryl-substituted pyrazine derivatives as pesticides” (Elanco Animal Health GmbH, priority 2019, dated 2026)

Columns and labels:
Assay type in all cases: in vivo
[1] = test system: Rhipicephalus (Boophilus) microplus larvae (strain Parkhurst, resistant against synthetic pyrethroids); test: Rhipicephalus (Boophilus) microplus in-vitro contact test, larval cattle tick; conditions: after 48 hours, read-out: efficacy (larvae dead or moribund); for pest or weed control at 1 µg/cm2, 100 g/ha: 1 μg/cm^2 (=100 g/ha); for pest or weed control at 5 µg/cm2, 500 g/ha: 5 μg/cm^2 (=500 g/ha)
Procedure, shortened: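 Pyrethroid-resistant larvae (strain Parkhurst), 20–50 per tube, exposed by contact to a dried acetone film of compound (5 μg/cm² at 900 ppm) for 48 h at 27 °C and 85% humidity. Percent dead or moribund larvae scored from negative geotactic behaviour.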

[2] = test system: adult brown dog ticks (Rhipicephalus sanguineus); test: Rhipicephalus sanguineus in-vitro contact test, adult brown dog ticks; conditions: 48 h, after 48 hours, read-out: efficacy (ticks dead or moribund); for pest or weed control at 5 µg/cm2, 500 g/ha: 5 μg/cm^2 (=500 g/ha)
Experimental: Rhipicephalus sanguineus—In-Vitro Contact Tests with Adult Brown Dog Ticks
(§1) 9 mg compound is solved in 1 mL acetone and diluted with acetone to the desired concentration. 250 of the test solution is filled in 25 mL glass test tubes and homogeneously distributed on the inner walls by rotation and tilting on a shaking device (2 h at 30 rpm). With a compound concentration of 900 ppm, an inner surface of 44.7 cm^2 and a homogeneous distribution, a dose of 5 μg/cm^2 is achieved.
(§2) After the solvent has evaporated, each test tube is filled with 5-10 adult brown dog ticks (Rhipicephalus sanguineus), closed with a perforated lid and incubated in a lying position at room temperature and relative humidity. After 48 hours efficacy is determined. The ticks are patted on the ground of the tubes and are incubated on a heating plate at 45-50° C. for at most 5 minutes Immotile or uncoordinated moving ticks, which are not able to escape the heat by climbing upwards, are marked as dead or moribund.
An efficacy of 100% means all ticks are dead or moribund; 0% means no ticks are dead or moribund.

[3] = test system: larvae of the banded cucumber beetle (Diabrotica balteata); test: Diabrotica balteata spray test; conditions: 168 h, after 7 days, read-out: efficacy (seedling growth); for pest or weed control at 32 µg/disc, 100 g/ha: 100 g/ha (=32 μg/well); for pest or weed control at 6.4 µg/disc, 20 g/ha: 20 g/ha (=6.4 μg/well)
Procedure, shortened: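 Efficacy was read 7 days after infesting each unit with 10–20 banded cucumber beetle larvae, as % of seedlings growing like untreated, uninfested controls. Before infestation, wheat seeds germinated 1 day on agar (5 per well) were sprayed with the active ingredient. The active was formulated in acetone/DMF and diluted in water containing emulsifier.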

[4] = test system: fall armyworm larvae (Spodoptera frugiperda); test: Spodoptera frugiperda spray test; conditions: 168 h, maize leaf sections, after 7 days
Procedure, shortened: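 Percent larval kill read at day 7, from 0% (no caterpillars dead) to 100% (all dead). Larvae were placed on dried Zea mays leaf discs previously sprayed with test preparations made from an acetone/DMF solution diluted in 1000 ppm emulsifier-containing water.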

[5] = test system: adult cat fleas (Ctenocephalides felis); test: Ctenocephalides felis in-vitro contact test, adult cat flea; conditions: after 48 hours, read-out: efficacy (fleas dead or moribund); for pest or weed control at 1 µg/cm2, 100 g/ha: 1 μg/cm^2 (=100 g/ha); for pest or weed control at 5 µg/cm2, 500 g/ha: 5 μg/cm^2 (=500 g/ha)
Experimental: Ctenocephalides felis—In-Vitro Contact Tests Adult Cat Flea
as §1, with “1 ml” for “1 mL”, “250 μL” for “250”
as §2, with “cat fleas (Ctenocephalides felis),” for “brown dog ticks (Rhipicephalus sanguineus),”, “fleas” for “ticks”, “fleas,” for “ticks,”
An efficacy of 100% means all fleas are dead or moribund; 0% means no fleas are dead or moribund.

Row | SMILES | pest or weed control at 1 µg/cm2, 100 g/ha [1] [%] | pest or weed control at 5 µg/cm2, 500 g/ha [1] [%] | pest or weed control at 1 µg/cm2, 100 g/ha ([2]; 1 μg/cm^2 (=100 g/ha)) [%] | pest or weed control at 5 µg/cm2, 500 g/ha [2] [%] | pest or weed control at 32 µg/disc, 100 g/ha [3] [%] | mortality at 100 g/ha [4] [%] | pest or weed control at 6.4 µg/disc, 20 g/ha [3] [%] | pest or weed control at 1 µg/cm2, 100 g/ha [5] [%] | pest or weed control at 5 µg/cm2, 500 g/ha [5] [%]
1 | CC(NC(=O)c1cc(C(F)(F)F)cc(C(F)(F)F)c1)c1nccnc1-n1cc(C(=O)N2C[C@@H](C)O[C@@H](C)C2)cn1 (mixture of isomers) [Example I-138, (rac)-N-[1-(3-{4-[(cis)-2,6-Dimethylmorpholine-4-carbonyl]-1H-pyrazol-1-yl}pyrazin-2-yl)ethyl]-3,5-bis(trifluoromethyl)benzamide] | 100 | 100 | 100 | 100 | 100 | 100 |  |  | 
2 | CC(NC(=O)c1cc(Br)cc(C#N)c1)c1nccnc1-c1ccc(Cl)cn1 (racemic) [Example I-48, (rac)-3-Bromo-N-{1-[3-(5-chloropyridin-2-yl)pyrazin-2-yl]ethyl}-5-cyanobenzamide] |  |  |  | 80 | 100 | 100 | 80 |  | 
3 | CC(NC(=O)c1cc(Br)cc(OC(F)(F)F)c1)c1nccnc1-c1ncc(C(=O)N2CCOCC2)s1 (racemic) [Example I-61, (rac)-3-Bromo-N-[1-{3-[5-(morpholine-4-carbonyl)-1,3-thiazol-2-yl]pyrazin-2-yl}ethyl]-5-(trifluoromethoxy)benzamide] | 100 | 100 |  |  |  |  |  | 100 | 100
4 | CC(NC(=O)c1cc(Cl)cc(Br)c1)c1nccnc1-c1ccc(Cl)cn1 (stereo not shown) [Example I-19] |  |  |  |  | 100 | 100 | 100 |  | 80
5 | CC(NC(=O)c1cc(Br)cc(OC(F)(F)F)c1)c1nccnc1-n1cc(C(F)(F)F)cn1 (racemic) [Example I-94, (rac)-3-Bromo-5-(trifluoromethoxy)-N-[1-{3-[4-(trifluoromethyl)-1H-pyrazol-1-yl]pyrazin-2-yl}ethyl]benzamide] | 100 | 100 |  | 80 | 100 | 100 |  |  | 
6 | CC(NC(=O)c1cc(Br)cc(C(F)(F)F)c1)c1nccnc1-c1ncc(C(=O)N(C)CC2CC2)s1 (racemic) [Example I-119, (rac)-2-(3-{1-[3-Bromo-5-(trifluoromethyl)benzamido]ethyl}pyrazin-2-yl)-N-(cyclopropylmethyl)-N-methyl-1,3-thiazole-5-carboxamide] | 100 | 100 |  |  | 100 | 100 | 100 |  | 90
7 | CC(NC(=O)c1cc(C(F)(F)F)cc(C(F)(F)F)c1)c1nccnc1-c1ccc(C(=O)N(C)CC2CC2)cn1 (racemic) [Example I-32, (rac)-6-(3-{1-[3,5-Bis(trifluoromethyl)benzamido]ethyl}pyrazin-2-yl)-N-(cyclopropylmethyl)-N-methylpyridine-3-carboxamide] | 100 | 100 |  |  |  | 100 |  |  | 100
8 | CC(NC(=O)c1cc(Cl)cc(C(F)(F)F)c1)c1nccnc1-c1ncc(C(=O)N2CCOCC2)s1 (racemic) [Example I-59, (rac)-3-Chloro-N-[1-{3-[5-(morpholine-4-carbonyl)-1,3-thiazol-2-yl]pyrazin-2-yl}ethyl]-5-(trifluoromethyl)benzamide] | 100 | 100 |  | 100 | 100 | 83 |  |  | 
9 | CCNC(=O)c1ccc(-c2nccnc2C(C)NC(=O)c2cc(C(F)(F)F)cc(C(F)(F)F)c2)nc1 (racemic) [Example I-35, (rac)-6-(3-{1-[3,5-Bis(trifluoromethyl)benzamido]ethyl}pyrazin-2-yl)-N-ethylpyridine-3-carboxamide] | 100 | 100 |  |  |  |  |  | 80 | 100
10 | CC(NC(=O)c1cc(Br)cc(C#N)c1)c1nccnc1-c1ccc(C(=O)N2CCOCC2)cn1 (racemic) [Example I-33, (rac)-3-Bromo-5-cyano-N-[1-{3-[5-(morpholine-4-carbonyl)pyridin-2-yl]pyrazin-2-yl}ethyl]benzamide] | 90 | 100 |  |  |  |  |  | 100 | 100
11 | COc1ccc(-c2nccnc2C(C)NC(=O)c2cc(Br)cc(OC(F)(F)F)c2)nc1 (stereo not shown) [Example I-27] | 90 | 80 |  |  | 100 |  |  | 80 | 80
12 | CC(NC(=O)c1cc(C#N)cc(C(F)(F)F)c1)c1nccnc1-n1cc(C#N)cn1 (racemic) [Example I-115, (rac)-3-Cyano-N-{1-[3-(4-cyano-1H-pyrazol-1-yl)pyrazin-2-yl]ethyl}-5-(trifluoromethyl)benzamide] | 100 | 100 |  |  | 100 | 100 | 100 |  | 
13 | CC(NC(=O)c1cc(Br)cc(C(F)(F)F)c1)c1nccnc1-c1ncc(C(=O)N(C)C)s1 (racemic) [Example I-118, (rac)-2-(3-{1-[3-Bromo-5-(trifluoromethyl)benzamido]ethyl}pyrazin-2-yl)-N,N-dimethyl-1,3-thiazole-5-carboxamide] | 100 | 100 |  |  | 100 | 100 | 100 |  | 90
14 | CC(NC(=O)c1cc(C(F)(F)F)cc(C(F)(F)F)c1)c1nccnc1-c1ncc(C(=O)N(C)CC2CC2)s1 (racemic) [Example I-51, (rac)-2-(3-{1-[3,5-Bis(trifluoromethyl)benzamido]ethyl}pyrazin-2-yl)-N-(cyclopropylmethyl)-N-methyl-1,3-thiazole-5-carboxamide] | 90 | 90 |  |  | 100 | 100 | 100 |  | 
15 | CCN(C)C(=O)c1cnc(-c2nccnc2C(C)NC(=O)c2cc(C(F)(F)F)cc(C(F)(F)F)c2)s1 (racemic) [Example I-72, (rac)-2-(3-{1-[3,5-Bis(trifluoromethyl)benzamido]ethyl}pyrazin-2-yl)-N-ethyl-N-methyl-1,3-thiazole-5-carboxamide] | 100 | 100 |  | 80 | 100 | 100 | 100 |  | 
